# System: production of CD69 by B lymphocytes in human whole blood
# Experiment: CD69 Whole Blood Assay (CD69 Hu Blood FACS)
# Format: cell-based
# Conditions: Lymphocyte, stimulated with goat F(ab')2 anti-human IgM, 20 hours, CD69 positive of CD20 positive cells
# Excerpt: A CD69 Whole Blood Assay can be conducted on Formula I compounds to determine the ability of compounds to inhibit the production of CD69 by B lymphocytes in human whole blood activated by crosslinking surface IgM with goat F(ab′)2 anti-human IgM (Example 907). CD69 is a type II C-type lectin involved in lymphocyte migration and cytokine secretion. CD69 expression represents one of the earliest available indicators of leukocyte activation and its rapid induction occurs through transcriptional activation (Vazquez et al (2009) Jour. of Immunology Published Oct. 19, 2009, doi:10.4049/jimmunol.0900839). Concentration-dependent inhibition of antigen receptor stimulation by selective Btk inhibitors induces cell surface expression of the lymphocyte activation marker CD69 (Honigberg et al (2010) Proc. Natl. Acad. Sci. 107(29):13075-13080). Thus, CD69 inhibition by selective Btk inhibitors may be correlated with therapeutic efficacy of certain B-cell disorders.
# Human blood is obtained from healthy volunteers, with the following restrictions: 1 week drug-free, non-smokers. Blood (approximately 20 mls to test 8 compounds) is collected by venipuncture into Vacutainer® (Becton, Dickinson and Co.) tubes with sodium heparin.
# Solutions of Formula I compounds at 10 mM in DMSO are diluted 1:10 in 100% DMSO, then are diluted by three-fold serial dilutions in 100% DMSO for a ten point dose-response curve. The compounds are further diluted 1:10 in PBS and then an aliquot of 5.5 μl of each compound is added in duplicate to a 2 ml 96-well plate; 5.5 μl of 10% DMSO in PBS is added as control and no-stimulus wells. Human whole blood—HWB (100 μl) is added to each well. After mixing the plates are incubated at 37° C., 5% CO2, 100% humidity for 30 minutes. Goat F(ab′)2 anti-human IgM (10 μl of a 500 μg/ml solution, 50 μg/ml final) is added to each well (except the no-stimulus wells) with mixing and the plates are incubated for an additional 20 hours. At the end of the 20 hour incubation, samples are incubated with fluorescent labeled antibodies for 30 minutes, at 37° C., 5% CO2, 100% humidity. Include induced control, unstained and single stains for compensation adjustments and initial voltage settings. Samples are then lysed with PharM Lyse™ (BD Biosciences Pharmingen) according to the manufacturer's instructions. Samples are then transferred to a 96 well plate suitable to be run on the BD Biosciences HTS 96 well system on the LSRII machine. Data acquired and Mean Fluorescence Intensity values were obtained using BD Biosciences DIVA Software. Results are initially analyzed by FACS analysis software (Flow Jo).
row,SMILES,IC70 [nM]
1,"C[C@@H]1CN(c2ccc(Nc3cc(-c4cc(F)cc(N5CCn6c(cc7c6CCCC7)C5=O)c4CO)cn(C)c3=O)nc2)CCN1C [Compound 108, (R)-2-(3-(5-(5-(3,4-dimethylpiperazin-1-yl)pyridin-2-ylamino)-1-methyl-6-oxo-1,6-dihydropyridin-3-yl)-5-fluoro-2-(hydroxymethyl)phenyl)-3,4,6,7,8,9-hexahydropyrazino[1,2-a]indol-1(2H)-one]",23
2,"C[C@H]1CN(C2COC2)CCN1c1ccc(Nc2cc(-c3cc(F)cc(N4CCn5c(cc6c5CC(C)(C)C6)C4=O)c3CO)cn(C)c2=O)nc1 [Compound 103, (2S)-10-[5-fluoro-2-(hydroxymethyl)-3-[1-methyl-5-({5-[2-methyl-4-(oxetan-3-yl)piperazin-1-yl]pyridine-2-yl}amino)-6-oxo-1,6-dihydropyridin-3-yl]phenyl]-4,4-dimethyl-1,10-diazatricyclo[6.4.0.02,6]dodeca-2(6),7-dien-9-one]",14.5
3,"C[C@H]1CN(C2COC2)CCN1c1ccc(Nc2cc(-c3cc(F)cc(-n4ncc5c6c(sc5c4=O)CCCC6)c3CO)cn(C)c2=O)nc1 [Compound 102, (S)-5-[5-fluoro-2-(hydroxymethyl)-3(1-methyl-5-(5-(2-methyl-4-(oxetan-3-yl)piperazin-1-yl)pyridin-2-ylamino)-6-oxo-1,6-dihydropyridin-3-yl)phenyl]-8-thia-4,5-diazatricyclo[7.4.0.02,7]trideca-1(9),2(7),3-trien-6-one]",31
4,"C[C@@H]1CN(C)CCN1c1ccc(Nc2cc(-c3cc(F)cc(N4CCn5c(cc6c5CCCC6)C4=O)c3CO)cn(C)c2=O)nc1 [Compound 109, (R)-2-(3-(5-(5-(2,4-dimethylpiperazin-1-yl)pyridin-2-ylamino)-1-methyl-6-oxo-1,6-dihydropyridin-3-yl)-5-fluoro-2-(hydroxymethyl)phenyl)-3,4,6,7,8,9-hexahydropyrazino[1,2-a]indol-1(2H)-one]",29
5,"CN1C2COCC1CN(c1ccc(Nc3cc(-c4cc(F)cc(N5CCn6c(cc7c6CCCC7)C5=O)c4CO)cn(C)c3=O)nc1)C2 [Compound 112, 2-(5-fluoro-2-(hydroxymethyl)-3-(1-methyl-5-(5-(9-methyl-7-oxa-3,9-diaza-bicyclo[3.3.1]nonan-3-yl)pyridin-2-ylamino)-6-oxo-1,6-dihydropyridin-3-yl)phenyl)-3,4,6,7,8,9-hexahydropyrazino[1,2-a]indol-1(2H)-one]",170
6,"CN1CCN(c2ccc(Nc3cc(-c4cc(F)cc(N5CCn6c(cc7c6CCCC7)C5=O)c4CO)cn(C)c3=O)nc2)CC1CF (stereo not drawn) [Compound 111, 2-(5-fluoro-3-(5-(5-(3-(fluoromethyl)-4-methylpiperazin-1-yl)pyridin-2-ylamino)-1-methyl-6-oxo-1,6-dihydropyridin-3-yl)-2-(hydroxymethyl)phenyl)-3,4,6,7,8,9-hexahydropyrazino[1,2-a]indol-1(2H)-one]",92
7,"C[C@H]1CN(c2ccc(Nc3cc(-c4cc(F)cc(N5CCn6c(cc7c6CCCC7)C5=O)c4CO)cn(C)c3=O)nc2)CCN1C [Compound 107, (S)-2-(3-(5-(5-(3,4-dimethylpiperazin-1-yl)pyridin-2-ylamino)-1-methyl-6-oxo-1,6-dihydropyridin-3-yl)-5-fluoro-2-(hydroxymethyl)phenyl)-3,4,6,7,8,9-hexahydropyrazino[1,2-a]indol-1(2H)-one]",44
8,"C[C@H]1CN(C2COC2)CCN1c1ccc(Nc2cc(-c3cc(F)cc(N4CCn5c(cc6c5CCCC6)C4=O)c3CO)cn(C)c2=O)nc1 [Compound 106, (S)-2-(5-fluoro-2-(hydroxymethyl)-3-(1-methyl-5-(5-(2-methyl-4-(oxetan-3-yl)piperazin-1-yl)pyridin-2-ylamino)-6-oxo-1,6-dihydropyridin-3-yl)phenyl)-3,4,6,7,8,9-hexahydropyrazino[1,2-a]indol-1(2H)-one]",19
9,CC[C@H]1CN(C2COC2)CCN1c1ccc(Nc2cc(-c3cc(F)cc(N4CCn5c(cc6c5CCCC6)C4=O)c3CO)cn(C)c2=O)nc1 [Compound 105],8
10,"C[C@H]1CN(C)CCN1c1ccc(Nc2cc(-c3cc(F)cc(N4CCn5c(cc6c5CCCC6)C4=O)c3CO)cn(C)c2=O)nc1 [Compound 110, (S)-2-(3-(5-(5-(2,4-dimethylpiperazin-1-yl)pyridin-2-ylamino)-1-methyl-6-oxo-1,6-dihydropyridin-3-yl)-5-fluoro-2-(hydroxymethyl)phenyl)-3,4,6,7,8,9-hexahydropyrazino[1,2-a]indol-1(2H)-one]",6
11,"C[C@@H]1CN(c2ccc(Nc3cc(-c4cc(F)cc(N5CCn6c(cc7c6CCCC7)C5=O)c4CO)cn(C)c3=O)nc2)[C@@H](C)CN1C1COC1 [Compound 104, 2-(3-(5-(5-((2S,5R)-2,5-dimethyl-4-(oxetan-3-yl)piperazin-1-yl)pyridin-2-ylamino)-1-methyl-6-oxo-1,6-dihydropyridin-3-yl)-5-fluoro-2-(hydroxymethyl)phenyl)-3,4,6,7,8,9-hexahydropyrazino[1,2-a]indol-1(2H)-one]",15
12,"C[C@H]1CN(C2COC2)CCN1c1ccc(Nc2cc(-c3cc(F)cc(N4CCc5c(cc6n5CCCC6)C4=O)c3CO)cn(C)c2=O)nc1 [Compound 101, (S)-2-(5-fluoro-2-(hydroxymethyl)-3-(1-methyl-5-(5-(2-methyl-4-(oxetan-3-yl)piperazin-1-yl)pyridin-2-ylamino)-6-oxo-1,6-dihydropyridin-3-yl)phenyl)-3,4,6,7,8,9-hexahydropyrido[3,4-b]indolizin-1(2H)-one]",33.8

# Same assay, conditions: stimulated with goat F(ab')2 anti-human IgM, 20 hours, CD69 positive of CD20 positive cells, Table 2, unit inferred
row,SMILES,CD69 Hu Blood FACS (IC70) [nM]
1,"C[C@H]1CN(C2COC2)CCN1c1ccc(Nc2cc(-c3cc(F)cc(-n4ncc5c6c(sc5c4=O)CC(C)(C)C6)c3CO)cn(C)c2=O)nc1 [Compound 131, 3-[5-fluoro-2-(hydroxymethyl)-3-[1-methyl-5-[[5-[(2S)-2-methyl-4-(oxetan-3-yl)piperazin-1-yl]-2-pyridyl]amino]-6-oxo-3-pyridyl]phenyl]-7,7-dimethyl-6,8-dihydrocyclopenta[3,4]thieno[1,3-d]pyridazin-4-one]",34.9
2,"C[C@@H]1CN(c2ccc(Nc3cc(-c4cc(F)cc(N5CCc6c(cc7n6CCCC7)C5=O)c4CO)cn(C)c3=O)nc2)[C@@H](C)CN1C1COC1 [Compound 126, 2-[3-[5-[[5-[(2S,5R)-2,5-dimethyl-4-(oxetan-3-yl)piperazin-1-yl]-2-pyridyl]amino]-1-methyl-6-oxo-3-pyridyl]-5-fluoro-2-(hydroxymethyl)phenyl]-3,4,6,7,8,9-hexahydropyrido[3,4-b]indolizin-1-one]",57.1
3,"CNC(=O)c1c(-c2cc(Nc3ccc(N4CCN(C5COC5)C[C@@H]4C)cn3)c(=O)n(C)c2)cc(F)cc1N1CCn2c(cc3c2CC(C)(C)C3)C1=O [Compound 129, 2-(7,7-dimethyl-4-oxo-1,2,6,8-tetrahydrocyclopenta[3,4]pyrrolo[3,5-b]pyrazin-3-yl)-4-fluoro-N-methyl-6-[1-methyl-5-[[5-[(2S)-2-methyl-4-(oxetan-3-yl)piperazin-1-yl]-2-pyridyl]amino]-6-oxo-3-pyridyl]benzamide]",472
4,"C[C@H]1CN(C2COC2)CCN1c1ccc(Nc2cc(-c3cc(F)cc(-n4ncc5c(cc6n5CCCC6)c4=O)c3CO)cn(C)c2=O)nc1 [Compound 127, 2-[5-fluoro-2-(hydroxymethyl)-3-[1-methyl-5-[[5-[(2S)-2-methyl-4-(oxetan-3-yl)piperazin-1-yl]-2-pyridyl]amino]-6-oxo-3-pyridyl]phenyl]-6,7,8,9-tetrahydropyridazino[4,5-b]indolizin-1-one]",51
5,"C[C@H]1CN(C2COC2)CCN1c1ccc(Nc2cc(-c3cccc(-n4ncc5c6c(sc5c4=O)CCCC6)c3CO)cn(C)c2=O)nc1 [Compound 130, 3-[2-(hydroxymethyl)-3-[1-methyl-5-[[5-[(2S)-2-methyl-4-(oxetan-3-yl)piperazin-1-yl]-2-pyridyl]amino]-6-oxo-3-pyridyl]phenyl]-6,7,8,9-tetrahydrobenzothiopheno[2,3-d]pyridazin-4-one]",35.4
6,"C[C@H]1CN(C2COC2)CCN1c1ccc(Nc2cc(-c3cc(F)cc(N4CCn5c(cc6c5CC(C)(C)C6)C4=O)c3C(=O)O)cn(C)c2=O)nc1 [Compound 128, 2-(7,7-dimethyl-4-oxo-1,2,6,8-tetrahydrocyclopenta[3,4]pyrrolo[3,5-b]pyrazin-3-yl)-4-fluoro-6-[1-methyl-5-[[5-[(2S)-2-methyl-4-(oxetan-3-yl)piperazin-1-yl]-2-pyridyl]amino]-6-oxo-3-pyridyl]benzoic acid]",5000

# Reference: US9115152B2, “Alkylated piperazine compounds” (Genentech, Inc., priority 2011, dated 2015)
